Measurements as given in ChEMBL document CHEMBL3045015, “Synthesis and physiological evaluation of new N-nitroso-2,6-dicarbethoxy-3,5-diaryltetrahydro-1,4-thiazine-1,1-dioxides” (Med Chem Res, 2012).

Tests used:
[1] = tested on: Streptococcus pyogenes; experiment: Antibacterial activity against Streptococcus pyogenes MTCC 389 at 10 ug/ml by disk diffusion method; type: functional; conditions: read-out: IZ
[2] = tested on: Escherichia coli; experiment: Antibacterial activity against Escherichia coli MTCC 722 at 10 ug/ml by disk diffusion method; type: functional; conditions: read-out: IZ
[3] = tested on: Pseudomonas aeruginosa; experiment: Ratio of compound IZ to amikacin IZ for Pseudomonas aeruginosa […] at 10 ug/ml by disk diffusion method; type: functional
[4] = tested on: Staphylococcus aureus; experiment: Antibacterial activity against Staphylococcus aureus MTCC 96 at 10 ug/ml by disk diffusion method; type: functional; conditions: read-out: IZ
[5] = tested on: Candida albicans; experiment: Ratio of compound IZ to nystatin IZ for Candida albicans MTCC 227 at 10 ug/ml by disk diffusion method; type: functional
[6] = tested on: Candida albicans; experiment: Antifungal activity against Candida albicans MTCC 227 at 10 ug/ml by disk diffusion method; type: functional; conditions: read-out: IZ
[7] = tested on: Pseudomonas aeruginosa; experiment: Antibacterial activity against Pseudomonas aeruginosa […] at 10 ug/ml by disk diffusion method; type: functional; conditions: read-out: IZ
[8] = tested on: Staphylococcus aureus; experiment: Ratio of compound IZ to amikacin IZ for Staphylococcus aureus MTCC 96 at 10 ug/ml by disk diffusion method; type: functional
[9] = tested on: Mus musculus; experiment: Acute toxicity in Mus musculus (mouse) at 300 mg/kg; type: organism-based; set-up: dose 300 mg/kg; conditions: in vivo
[10] = tested on: Streptococcus pyogenes; experiment: Ratio of compound IZ to amikacin IZ for Streptococcus pyogenes MTCC 389 at 10 ug/ml by disk diffusion method; type: functional
[11] = tested on: Escherichia coli; experiment: Ratio of compound IZ to amikacin IZ for Escherichia coli MTCC 722 at 10 ug/ml by disk diffusion method; type: functional

SMILES	zone of inhibition at 10 µg/mL [1]	zone of inhibition at 10 µg/mL [2]	Ratio [3]	zone of inhibition at 10 µg/mL [4]	Ratio [5]	zone of inhibition at 10 µg/mL [6]	zone of inhibition at 10 µg/mL [7]	Ratio [8]	Activity [9]	Ratio [10]	Ratio [11]
CCOC(=O)C1C(c2ccc[nH]2)N(N=O)C(c2ccc[nH]2)C(C(=O)OCC)S1(=O)=O (configuration not stated)	14 mm	11 mm	0.71	13 mm	0.58	11 mm	12 mm	0.72	Non-toxic	0.7	0.65
CCOC(=O)C1C(c2cc3ccccc3nc2Cl)N(N=O)C(c2cc3ccccc3nc2Cl)C(C(=O)OCC)S1(=O)=O (configuration not stated)	12 mm	9 mm	0.59	14 mm	0.95	18 mm	10 mm	0.78	Non-toxic	0.6	0.53
CCOC(=O)C1C(c2c[nH]c3ccccc23)N(N=O)C(c2c[nH]c3ccccc23)C(C(=O)OCC)S1(=O)=O (configuration not stated)	9 mm	12 mm	0.65	8 mm	0.79	15 mm	11 mm	0.44	Non-toxic	0.45	0.71
CCOC(=O)C1C(c2ccc(OC)c(OC)c2)N(N=O)C(c2ccc(OC)c(OC)c2)C(C(=O)OCC)S1(=O)=O (configuration not stated)	8 mm	13 mm	0.65	12 mm	0.74	14 mm	11 mm	0.67	Non-toxic	0.4	0.76
CCOC(=O)C1C(c2ccccc2)N(N=O)C(c2ccccc2)C(C(=O)OCC)S1(=O)=O (configuration not stated)	15 mm	12 mm	0.76	11 mm	0.69	13 mm	13 mm	0.61	Non-toxic	0.75	0.71
CCOC(=O)C1C(c2ccccc2Cl)N(N=O)C(c2ccccc2Cl)C(C(=O)OCC)S1(=O)=O (configuration not stated)	10 mm	13 mm	0.71	9 mm	0.84	16 mm	12 mm	0.5	Non-toxic	0.5	0.76
CCOC(=O)C1C(c2cccc(Cl)c2)N(N=O)C(c2cccc(Cl)c2)C(C(=O)OCC)S1(=O)=O (configuration not stated)	8 mm	14 mm	0.59	11 mm	0.79	15 mm	10 mm	0.61	Non-toxic	0.4	0.82
CCOC(=O)C1C(c2ccc(Cl)cc2)N(N=O)C(c2ccc(Cl)cc2)C(C(=O)OCC)S1(=O)=O (configuration not stated)	10 mm	13 mm	0.71	10 mm	0.84	16 mm	12 mm	0.56	Non-toxic	0.5	0.76
CCOC(=O)C1C(c2cccc([N+](=O)[O-])c2)N(N=O)C(c2cccc([N+](=O)[O-])c2)C(C(=O)OCC)S1(=O)=O (configuration not stated)	9 mm	14 mm	0.88	12 mm	0.69	13 mm	15 mm	0.67	Non-toxic	0.45	0.82
CCOC(=O)C1C(c2ccc([N+](=O)[O-])cc2)N(N=O)C(c2ccc([N+](=O)[O-])cc2)C(C(=O)OCC)S1(=O)=O (configuration not stated)	17 mm	17 mm	0.65	13 mm	0.63	12 mm	11 mm	0.72	Non-toxic	0.85	1
CCOC(=O)C1C(c2ccc(OC)cc2)N(N=O)C(c2ccc(OC)cc2)C(C(=O)OCC)S1(=O)=O (configuration not stated)	13 mm	12 mm	1.11	11 mm	0.69	13 mm	18 mm	0.61	Non-toxic	0.65	0.71
CCOC(=O)C1C(c2ccc(C)cc2)N(N=O)C(c2ccc(C)cc2)C(C(=O)OCC)S1(=O)=O (configuration not stated)	17 mm	17 mm	0.53	11 mm	0.58	11 mm	9 mm	0.61	Non-toxic	0.85	1
CCOC(=O)C1C(c2ccco2)N(N=O)C(c2ccco2)C(C(=O)OCC)S1(=O)=O (configuration not stated)	11 mm	15 mm	0.59	12 mm	0.74	14 mm	10 mm	0.67	Non-toxic	0.55	0.88
CCOC(=O)C1C(c2cccs2)N(N=O)C(c2cccs2)C(C(=O)OCC)S1(=O)=O (configuration not stated)	15 mm	13 mm	0.82	17 mm	1.11	20 mm	14 mm	0.94	Non-toxic	0.75	0.76
CCOC(=O)C1C(c2ccsc2)N(N=O)C(c2ccsc2)C(C(=O)OCC)S1(=O)=O (configuration not stated)	9 mm	14 mm	0.76	15 mm	0.74	14 mm	13 mm	0.83	Non-toxic	0.45	0.82
CCOC(=O)C1C(c2ccccn2)N(N=O)C(c2ccccn2)C(C(=O)OCC)S1(=O)=O (configuration not stated)	11 mm	10 mm	0.53	13 mm	0.63	12 mm	9 mm	0.72	Non-toxic	0.55	0.59
CCOC(=O)C1C(c2cccnc2)N(N=O)C(c2cccnc2)C(C(=O)OCC)S1(=O)=O (configuration not stated)	8 mm	12 mm	0.65	14 mm	0.79	15 mm	11 mm	0.78	Non-toxic	0.4	0.71
CCOC(=O)C1C(c2ccc3c(c2)OCO3)N(N=O)C(c2ccc3c(c2)OCO3)C(C(=O)OCC)S1(=O)=O (configuration not stated)	11 mm	8 mm	0.71	9 mm	0.53	10 mm	12 mm	0.5	Non-toxic	0.55	0.47
NCC[C@H](O)C(=O)N[C@@H]1C[C@H](N)[C@@H](O[C@H]2O[C@H](CN)[C@@H](O)[C@H](O)[C@H]2O)[C@H](O)[C@H]1O[C@H]1O[C@H](CO)[C@@H](O)[C@H](N)[C@H]1O [AMIKACIN]	20 mm	17 mm		18 mm			17 mm				
